Data reported in patent US10815230B2, “Casein kinase 1 delta inhibitor” (ELECTROPHORETICS LIMITED, priority 2015, dated 2020).
pIC50: −log10 of the molar value.

Tests used:
Format in all cases: biochemical
ABL2/ARG = ABL2/ARG (Homo sapiens, UniProt P42684); experiment: Kinase selectivity, % remaining activity; details: 10 μM compound, 10 μM ATP, duplicate; for remaining activity at 10 µM: read-out: % of remaining activity (relative to DMSO)
Procedure, shortened: (§1)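 Read-out is percent of kinase activity remaining compared with vehicle (DMSO). Testing used one dose, 10 μM, in duplicate at 10 μM ATP.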

ALK5/TGFBR1 = target: T1, ALK5/TGFBR1 (Homo sapiens, UniProt P36897); experiment: Kinase selectivity, % remaining activity; details: 10 μM compound, 10 μM ATP, duplicate; for remaining activity at 10 µM: read-out: % of remaining activity (relative to DMSO)
T1 sequence (P36897 34-503): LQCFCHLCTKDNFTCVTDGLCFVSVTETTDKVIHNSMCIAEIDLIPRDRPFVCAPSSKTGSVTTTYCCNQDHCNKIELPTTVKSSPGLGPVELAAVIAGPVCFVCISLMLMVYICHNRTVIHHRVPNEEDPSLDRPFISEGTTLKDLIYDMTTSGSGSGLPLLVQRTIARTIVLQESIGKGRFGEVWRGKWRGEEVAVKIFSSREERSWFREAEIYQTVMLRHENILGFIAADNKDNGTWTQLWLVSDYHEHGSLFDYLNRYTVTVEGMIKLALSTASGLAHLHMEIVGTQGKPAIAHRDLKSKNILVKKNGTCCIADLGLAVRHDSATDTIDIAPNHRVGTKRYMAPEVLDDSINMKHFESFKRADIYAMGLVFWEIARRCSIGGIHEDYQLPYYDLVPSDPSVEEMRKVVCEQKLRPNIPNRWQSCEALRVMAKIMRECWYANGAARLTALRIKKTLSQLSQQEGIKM
Procedure, shortened: as §1

CDK5/p25 = CDK5/p25 (Homo sapiens, UniProt Q00535); experiment: Kinase selectivity, % remaining activity; details: 10 μM compound, 10 μM ATP, duplicate; for remaining activity at 10 µM: read-out: % of remaining activity (relative to DMSO)
Procedure, shortened: as §1

CK1g2 = CK1g2 (Homo sapiens, UniProt P78368); experiment: Kinase selectivity, % remaining activity; details: 10 μM compound, 10 μM ATP, duplicate; for remaining activity at 10 µM: read-out: % of remaining activity (relative to DMSO)
Procedure, shortened: as §1

CLK2 = CLK2 (Homo sapiens, UniProt P49760); experiment: Kinase selectivity, % remaining activity; details: 10 μM compound, 10 μM ATP, duplicate; for remaining activity at 10 µM: read-out: % of remaining activity (relative to DMSO)
Procedure, shortened: as §1

DAPK1 = DAPK1 (Homo sapiens, UniProt P53355); experiment: Kinase selectivity, % remaining activity; details: 10 μM compound, 10 μM ATP, duplicate; for remaining activity at 10 µM: read-out: % of remaining activity (relative to DMSO)
Procedure, shortened: as §1

EGFR = EGFR (Homo sapiens, UniProt P00533); experiment: Kinase selectivity, % remaining activity; details: 10 μM compound, 10 μM ATP, duplicate; for remaining activity at 10 µM: read-out: % of remaining activity (relative to DMSO)
Procedure, shortened: as §1

KDR/VEGFR2 = KDR/VEGFR2 (Homo sapiens, UniProt P35968); experiment: Kinase selectivity, % remaining activity; details: 10 μM compound, 10 μM ATP, duplicate; for remaining activity at 10 µM: read-out: % of remaining activity (relative to DMSO)
Procedure, shortened: as §1

PIM3 = PIM3 (Homo sapiens, UniProt Q86V86); experiment: Kinase selectivity, % remaining activity; details: 10 μM compound, 10 μM ATP, duplicate; for remaining activity at 10 µM: read-out: % of remaining activity (relative to DMSO)
Procedure, shortened: as §1

ROCK1 = ROCK1 (Homo sapiens, UniProt Q13464); experiment: Kinase selectivity, % remaining activity; details: 10 μM compound, 10 μM ATP, duplicate; for remaining activity at 10 µM: read-out: % of remaining activity (relative to DMSO)
Procedure, shortened: as §1

TNIK = TNIK (Homo sapiens, UniProt Q9UKE5); experiment: Kinase selectivity, % remaining activity; details: 10 μM compound, 10 μM ATP, duplicate; for remaining activity at 10 µM: read-out: % of remaining activity (relative to DMSO)
Procedure, shortened: as §1

[1] = target: CK1d (casein kinase 1 delta) (Homo sapiens, UniProt P48730); experiment: Kinase selectivity, % remaining activity and IC50; details: 10 μM ATP; for remaining activity at 10 µM: read-out: % of remaining activity (relative to DMSO)
Procedure: A two-tier strategy to determine the selectivity of compound A was applied: first, the compound was tested at a single concentration (in duplicate) to determine the %-remaining activity of the target kinase. Subsequently, the IC50 of compound A and comparative compounds for casein kinase 1 delta were determined.
Compounds were tested in single dose duplicate mode at a concentration of 10 μM (in DMSO) and reactions were carried out at 10 μM ATP, Table 3 reports the % of remaining activity (relative to DMSO).
Control compound GW5074 (Tocris®) was tested starting at 20 μM. Reactions were carried out at 10 μM ATP.

[2] = CK1d, 10 μM compound, duplicate

Sequence of CDK5/p25 (Q00535 whole entry, species assumed): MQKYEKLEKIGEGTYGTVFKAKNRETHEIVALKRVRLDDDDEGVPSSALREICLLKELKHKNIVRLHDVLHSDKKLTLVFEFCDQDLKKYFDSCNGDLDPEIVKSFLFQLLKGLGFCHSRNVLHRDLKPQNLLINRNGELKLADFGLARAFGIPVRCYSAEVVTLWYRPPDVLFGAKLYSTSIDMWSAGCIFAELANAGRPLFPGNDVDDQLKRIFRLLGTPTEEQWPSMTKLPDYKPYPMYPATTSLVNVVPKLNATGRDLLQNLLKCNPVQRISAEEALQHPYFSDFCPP
Sequence of CK1g2 (P78368 whole entry, species assumed): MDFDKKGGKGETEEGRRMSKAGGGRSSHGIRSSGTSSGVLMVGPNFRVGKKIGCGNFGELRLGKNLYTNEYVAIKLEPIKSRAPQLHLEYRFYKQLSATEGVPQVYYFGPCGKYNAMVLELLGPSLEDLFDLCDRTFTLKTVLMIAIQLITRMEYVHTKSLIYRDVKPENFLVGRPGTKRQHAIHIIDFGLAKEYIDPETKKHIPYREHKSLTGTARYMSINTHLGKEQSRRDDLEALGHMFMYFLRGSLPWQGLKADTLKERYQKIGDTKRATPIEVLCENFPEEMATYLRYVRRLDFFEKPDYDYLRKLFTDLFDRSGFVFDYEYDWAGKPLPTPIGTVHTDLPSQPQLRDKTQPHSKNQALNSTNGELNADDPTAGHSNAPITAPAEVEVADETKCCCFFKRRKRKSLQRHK
Sequence of KDR/VEGFR2 (P35968 20-1356): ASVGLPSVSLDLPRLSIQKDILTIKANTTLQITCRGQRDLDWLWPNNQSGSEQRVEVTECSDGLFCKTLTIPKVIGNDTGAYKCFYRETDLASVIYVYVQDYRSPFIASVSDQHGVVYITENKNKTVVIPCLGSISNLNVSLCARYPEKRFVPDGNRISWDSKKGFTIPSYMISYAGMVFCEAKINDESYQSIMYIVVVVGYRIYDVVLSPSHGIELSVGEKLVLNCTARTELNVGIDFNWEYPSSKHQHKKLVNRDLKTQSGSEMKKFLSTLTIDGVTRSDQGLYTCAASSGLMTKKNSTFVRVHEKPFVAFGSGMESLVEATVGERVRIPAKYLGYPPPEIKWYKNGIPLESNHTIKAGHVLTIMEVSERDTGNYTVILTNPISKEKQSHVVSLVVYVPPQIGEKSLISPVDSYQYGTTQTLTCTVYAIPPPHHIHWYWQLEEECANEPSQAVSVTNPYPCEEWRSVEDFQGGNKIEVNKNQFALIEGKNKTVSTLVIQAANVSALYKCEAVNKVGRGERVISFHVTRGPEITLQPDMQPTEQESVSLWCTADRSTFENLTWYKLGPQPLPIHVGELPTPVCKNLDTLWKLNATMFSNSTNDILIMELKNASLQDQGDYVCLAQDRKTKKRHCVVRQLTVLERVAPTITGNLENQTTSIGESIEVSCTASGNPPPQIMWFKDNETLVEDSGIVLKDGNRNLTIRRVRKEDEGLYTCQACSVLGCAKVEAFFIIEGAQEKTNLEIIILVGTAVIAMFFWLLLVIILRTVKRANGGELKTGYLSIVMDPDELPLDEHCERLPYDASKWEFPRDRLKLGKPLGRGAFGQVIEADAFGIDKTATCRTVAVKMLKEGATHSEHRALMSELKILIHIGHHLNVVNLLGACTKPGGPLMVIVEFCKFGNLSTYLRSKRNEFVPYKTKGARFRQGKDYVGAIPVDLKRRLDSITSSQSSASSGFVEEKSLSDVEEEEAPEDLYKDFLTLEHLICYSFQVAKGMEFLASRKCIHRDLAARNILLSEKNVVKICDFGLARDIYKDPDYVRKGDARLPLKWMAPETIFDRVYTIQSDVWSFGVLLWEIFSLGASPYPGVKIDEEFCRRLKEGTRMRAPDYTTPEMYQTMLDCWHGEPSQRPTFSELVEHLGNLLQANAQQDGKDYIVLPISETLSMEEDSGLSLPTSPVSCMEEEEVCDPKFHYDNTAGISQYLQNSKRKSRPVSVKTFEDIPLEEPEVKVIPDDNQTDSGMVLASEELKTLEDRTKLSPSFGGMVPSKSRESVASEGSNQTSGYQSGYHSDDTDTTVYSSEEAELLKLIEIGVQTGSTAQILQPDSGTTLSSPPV
Sequence of DAPK1 (P53355 whole entry): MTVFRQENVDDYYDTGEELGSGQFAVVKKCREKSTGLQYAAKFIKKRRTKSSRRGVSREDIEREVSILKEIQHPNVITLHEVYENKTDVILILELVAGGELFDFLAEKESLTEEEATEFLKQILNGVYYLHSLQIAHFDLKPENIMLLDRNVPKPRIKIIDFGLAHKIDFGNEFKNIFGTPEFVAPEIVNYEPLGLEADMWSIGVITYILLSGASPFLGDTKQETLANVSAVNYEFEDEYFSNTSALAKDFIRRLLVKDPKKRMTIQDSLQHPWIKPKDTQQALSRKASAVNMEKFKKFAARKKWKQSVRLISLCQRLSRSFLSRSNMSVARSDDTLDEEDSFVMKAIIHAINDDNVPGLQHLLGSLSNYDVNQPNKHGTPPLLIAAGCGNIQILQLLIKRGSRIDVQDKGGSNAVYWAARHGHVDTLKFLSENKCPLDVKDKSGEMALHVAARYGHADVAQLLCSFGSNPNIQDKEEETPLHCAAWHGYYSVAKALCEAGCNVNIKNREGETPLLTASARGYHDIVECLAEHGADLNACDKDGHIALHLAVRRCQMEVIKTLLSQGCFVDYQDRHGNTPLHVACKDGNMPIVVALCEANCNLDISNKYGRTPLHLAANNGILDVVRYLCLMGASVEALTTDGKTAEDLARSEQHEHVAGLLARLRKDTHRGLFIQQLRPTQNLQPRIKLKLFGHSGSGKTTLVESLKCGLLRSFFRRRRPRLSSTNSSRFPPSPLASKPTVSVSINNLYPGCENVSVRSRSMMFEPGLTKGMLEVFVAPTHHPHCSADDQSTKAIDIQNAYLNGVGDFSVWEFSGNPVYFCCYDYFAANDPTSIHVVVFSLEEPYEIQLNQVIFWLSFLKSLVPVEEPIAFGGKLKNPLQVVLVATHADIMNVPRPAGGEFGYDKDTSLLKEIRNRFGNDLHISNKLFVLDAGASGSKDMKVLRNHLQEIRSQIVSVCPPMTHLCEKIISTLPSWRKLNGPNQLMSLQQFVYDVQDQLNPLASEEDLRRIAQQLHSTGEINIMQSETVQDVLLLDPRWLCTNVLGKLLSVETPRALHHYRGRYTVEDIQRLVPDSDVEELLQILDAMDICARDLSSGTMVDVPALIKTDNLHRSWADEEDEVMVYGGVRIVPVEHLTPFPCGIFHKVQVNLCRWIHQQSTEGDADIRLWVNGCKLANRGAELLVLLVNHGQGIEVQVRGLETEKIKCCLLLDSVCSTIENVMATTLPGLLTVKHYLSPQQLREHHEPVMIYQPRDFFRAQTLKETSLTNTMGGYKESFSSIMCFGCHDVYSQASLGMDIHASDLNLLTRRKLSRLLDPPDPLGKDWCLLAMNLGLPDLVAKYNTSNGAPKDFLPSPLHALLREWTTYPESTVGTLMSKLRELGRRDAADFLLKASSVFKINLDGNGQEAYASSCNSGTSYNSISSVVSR
Sequence of TNIK (Q9UKE5 whole entry): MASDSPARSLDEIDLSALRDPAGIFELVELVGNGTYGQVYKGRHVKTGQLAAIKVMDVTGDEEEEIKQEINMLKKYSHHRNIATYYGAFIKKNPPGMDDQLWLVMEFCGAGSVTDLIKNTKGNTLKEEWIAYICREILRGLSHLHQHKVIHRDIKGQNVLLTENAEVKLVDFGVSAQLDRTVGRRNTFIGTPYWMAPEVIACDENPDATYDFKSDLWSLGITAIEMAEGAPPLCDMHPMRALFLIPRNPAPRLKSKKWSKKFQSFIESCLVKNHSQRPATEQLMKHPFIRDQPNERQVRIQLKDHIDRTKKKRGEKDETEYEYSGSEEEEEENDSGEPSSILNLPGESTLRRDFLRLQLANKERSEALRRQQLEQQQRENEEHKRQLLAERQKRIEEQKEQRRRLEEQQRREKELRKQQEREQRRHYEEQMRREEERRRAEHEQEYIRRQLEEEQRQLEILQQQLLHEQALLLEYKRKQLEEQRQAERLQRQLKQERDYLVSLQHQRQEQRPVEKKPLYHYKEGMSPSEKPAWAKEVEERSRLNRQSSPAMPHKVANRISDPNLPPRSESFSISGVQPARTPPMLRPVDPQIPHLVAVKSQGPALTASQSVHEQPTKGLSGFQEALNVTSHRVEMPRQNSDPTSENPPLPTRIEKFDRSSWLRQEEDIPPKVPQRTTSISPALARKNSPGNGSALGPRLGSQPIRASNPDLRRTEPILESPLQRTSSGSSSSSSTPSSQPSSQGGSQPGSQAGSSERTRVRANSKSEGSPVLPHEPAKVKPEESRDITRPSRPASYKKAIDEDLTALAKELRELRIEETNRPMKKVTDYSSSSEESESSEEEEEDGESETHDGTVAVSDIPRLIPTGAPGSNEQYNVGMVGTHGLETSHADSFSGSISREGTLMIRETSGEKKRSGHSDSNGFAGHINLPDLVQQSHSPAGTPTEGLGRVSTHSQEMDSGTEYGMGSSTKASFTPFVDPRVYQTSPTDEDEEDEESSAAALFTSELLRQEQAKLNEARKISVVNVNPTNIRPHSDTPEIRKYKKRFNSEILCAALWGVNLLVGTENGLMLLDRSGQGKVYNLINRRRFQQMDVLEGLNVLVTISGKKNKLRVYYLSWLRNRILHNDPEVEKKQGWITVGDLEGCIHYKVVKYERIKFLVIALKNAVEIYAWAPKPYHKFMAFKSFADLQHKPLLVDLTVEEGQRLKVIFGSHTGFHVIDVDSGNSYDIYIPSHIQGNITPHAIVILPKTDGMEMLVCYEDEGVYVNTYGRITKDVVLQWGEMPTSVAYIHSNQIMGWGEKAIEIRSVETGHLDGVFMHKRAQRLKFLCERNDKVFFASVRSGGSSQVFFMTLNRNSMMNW

## COc1ccc(C=C2N=C(c3cccs3)OC2=O)cc1 [Comparative Compound 315, 4-((4-methoxyphenyl)methylene)-2-(2-thienyl)-5(4H)-oxalone]
ABL2/ARG; listed as Cmp 315
  % of remaining activity (relative to DMSO): 89.19%
ABL2/ARG
  remaining activity at 10 µM: 83.4%
ALK5/TGFBR1; listed as Cmp 315
  % of remaining activity (relative to DMSO): 110.31%
ALK5/TGFBR1
  remaining activity at 10 µM: 107%
CDK5/p25; listed as Cmp 315
  % of remaining activity (relative to DMSO): 94.86%
CDK5/p25
  remaining activity at 10 µM: 96.1%
CK1g2; listed as Cmp 315
  % of remaining activity (relative to DMSO): 50.52%
CK1g2
  remaining activity at 10 µM: 47.3%
CLK2; listed as Cmp 315
  % of remaining activity (relative to DMSO): 48.99%
CLK2
  remaining activity at 10 µM: 50.6%
DAPK1; listed as Cmp 315
  % of remaining activity (relative to DMSO): 90.84%
DAPK1
  remaining activity at 10 µM: 96%
EGFR; listed as Cmp 315
  % of remaining activity (relative to DMSO): 117.99%
EGFR
  remaining activity at 10 µM: 111%
KDR/VEGFR2; listed as Cmp 315
  % of remaining activity (relative to DMSO): 107.86%
KDR/VEGFR2
  remaining activity at 10 µM: 104%
PIM3; listed as Cmp 315
  % of remaining activity (relative to DMSO): 57.54%
PIM3
  remaining activity at 10 µM: 60.6%
ROCK1; listed as Cmp 315
  % of remaining activity (relative to DMSO): 90.20%
ROCK1
  remaining activity at 10 µM: 93.4%
TNIK; listed as Cmp 315
  % of remaining activity (relative to DMSO): 101.11%
TNIK
  remaining activity at 10 µM: 101%
[1]; CK1d, 10 μM compound, duplicate, listed as Cmp 315
  % of remaining activity (relative to DMSO): 1.38%
[1]; [2]
  remaining activity at 10 µM: 2.23%
[1]; casein kinase 1 delta, 10-dose, 3 fold serial dilution
  pIC50: 6.36

## Nc1ncnc2c1c(COc1cccc(Cl)c1)nn2C1CCOCC1 [PF4800567, 3-[(3-Chlorophenoxy)methyl]-1-(tetrahydro-2H-pyran-4-yl)-1H-pyrazolo[3,4-d]pyrimidin-4-amine]
ABL2/ARG
  remaining activity at 10 µM: 68.4%
ALK5/TGFBR1
  remaining activity at 10 µM: 105%
CDK5/p25
  remaining activity at 10 µM: 97.7%
CK1g2
  remaining activity at 10 µM: 86%
CLK2
  remaining activity at 10 µM: 105%
DAPK1
  remaining activity at 10 µM: 92.5%
EGFR
  remaining activity at 10 µM: 68.8%
KDR/VEGFR2
  remaining activity at 10 µM: 83.1%
PIM3
  remaining activity at 10 µM: 116%
ROCK1
  remaining activity at 10 µM: 95.2%
TNIK
  remaining activity at 10 µM: 89.7%
[1]; [2]
  remaining activity at 10 µM: 8.41%
